Reference: ChEMBL document CHEMBL1153550, “In vitro study of Candida tropicalis isolates exhibiting paradoxical growth in the presence of high concentrations of caspofungin” (2007)
Converted amounts (≈) assume the structure as drawn. The source made the active and inactive calls. The calls are words filed in the database; no cut-off is given here.

Key:
Candida tropicalis [1] = assay: Antifungal activity against > 2 x 10^7 CFU/ml Candida tropicalis isolate 9 in antibiotic medium 3 assessed as partial growth after 24 hrs by broth microdilution method; format: functional, organism-based
Candida tropicalis [2] = assay: Antifungal activity against > 2 x 10^7 CFU/ml Candida tropicalis isolate 7 in antibiotic medium 3 assessed as partial growth after 24 hrs by broth microdilution method; format: functional, organism-based
Candida tropicalis [3] = assay: Antifungal activity against > 2 x 10^7 CFU/ml Candida tropicalis isolate 3 in antibiotic medium 3 assessed as partial growth after 24 hrs by broth microdilution method; format: functional, organism-based
Candida tropicalis [4] = assay: Antifungal activity against > 2 x 10^7 CFU/ml Candida tropicalis isolate 11 in RPMI 1640 medium assessed as partial growth after 24 hrs by broth microdilution method; format: functional, organism-based
Candida tropicalis [5] = assay: Antifungal activity against 2 x 10^7 CFU/ml Candida tropicalis isolate 4 in RPMI 1640 medium assessed as paradoxical growth at 12.5 ug/ml after 24 hrs by broth microdilution method; format: functional, organism-based
Candida tropicalis [6] = assay: Antifungal activity against 2 x 10^7 CFU/ml Candida tropicalis isolate 14 in antibiotic medium 3 after 24 hrs by broth microdilution method; format: functional; details: isolate 14, 24 h
Candida tropicalis [7] = assay: Antifungal activity against 2 x 10^7 CFU/ml Candida tropicalis isolate 13 in antibiotic medium 3 after 24 hrs by broth microdilution method; format: functional; details: isolate 13, 24 h
Candida tropicalis [8] = assay: Antifungal activity against 2 x 10^7 CFU/ml Candida tropicalis isolate 8 in antibiotic medium 3 after 24 hrs by broth microdilution method; format: functional; details: isolate 8, 24 h
Candida tropicalis [9] = assay: Antifungal activity against 2 x 10^7 CFU/ml Candida tropicalis isolate 5 in antibiotic medium 3 after 24 hrs by broth microdilution method; format: functional; details: isolate 5, 24 h
Candida tropicalis [10] = assay: Antifungal activity against 2 x 10^7 CFU/ml Candida tropicalis isolate 14 in RPMI 1640 medium after 24 hrs by broth microdilution method; format: functional; details: isolate 14, 24 h
Candida tropicalis [11] = assay: Antifungal activity against 2 x 10^7 CFU/ml Candida tropicalis isolate 13 in RPMI 1640 medium after 24 hrs by broth microdilution method; format: functional; details: isolate 13, 24 h
Candida tropicalis [12] = assay: Antifungal activity against 2 x 10^7 CFU/ml Candida tropicalis isolate 9 in RPMI 1640 medium after 24 hrs by broth microdilution method; format: functional; details: isolate 9, 24 h
Candida tropicalis [13] = assay: Antifungal activity against 2 x 10^7 CFU/ml Candida tropicalis isolate 7 in RPMI 1640 medium after 24 hrs by broth microdilution method; format: functional; details: isolate 7, 24 h
Candida tropicalis [14] = assay: Antifungal activity against 2 x 10^7 CFU/ml Candida tropicalis isolate 6 in RPMI 1640 medium after 24 hrs by broth microdilution method; format: functional; details: isolate 6, 24 h
Candida tropicalis [15] = assay: Antifungal activity against 2 x 10^7 CFU/ml Candida tropicalis isolate 5 in RPMI 1640 medium after 24 hrs by broth microdilution method; format: functional; details: isolate 5, 24 h
Candida tropicalis [16] = assay: Antifungal activity against 2 x 10^7 CFU/ml Candida tropicalis isolate 2 in RPMI 1640 medium after 24 hrs by broth microdilution method; format: functional; details: isolate 2, 24 h
Candida tropicalis [17] = assay: Antifungal activity against 2 x 10^7 CFU/ml Candida tropicalis isolate 1 in RPMI 1640 medium after 24 hrs by broth microdilution method; format: functional; details: isolate 1, 24 h
Candida tropicalis [18] = assay: Antifungal activity against 10^5 CFU/ml Candida tropicalis isolate 4 in RPMI 1640 medium at 12.5 ug/ml treated for 48 hrs followed by incubation in drug free medium for 48 hrs by broth microdilution method; format: functional, organism-based
Candida tropicalis [19] = assay: Antifungal activity against 10^5 CFU/ml Candida tropicalis isolate 5 in RPMI 1640 medium at 12.5 ug/ml treated for 48 hrs followed by incubation in drug free medium for 48 hrs by broth microdilution method; format: functional, organism-based
Candida tropicalis [20] = assay: Antifungal activity against 10^5 CFU/ml Candida tropicalis isolate 11 in RPMI 1640 medium at 12.5 ug/ml treated for 48 hrs followed by incubation in drug free medium for 48 hrs by broth microdilution method; format: functional, organism-based
Candida tropicalis [21] = assay: Antifungal activity against 10^5 CFU/ml Candida tropicalis isolate 14 in RPMI 1640 medium at 12.5 ug/ml treated for 48 hrs followed by incubation in drug free medium for 48 hrs by broth microdilution method; format: functional, organism-based
Candida tropicalis [22] = assay: Antifungal activity against Candida tropicalis isolate 5 in RPMI 1640 medium assessed as paradoxical growth at 6.25 ug/ml after 24 hrs by broth microdilution method; format: functional, organism-based
Candida tropicalis [23] = assay: Antifungal activity against Candida tropicalis isolate 7 in RPMI 1640 medium assessed as paradoxical growth at 6.25 ug/ml after 24 hrs by broth microdilution method; format: functional, organism-based
Candida tropicalis [24] = assay: Antifungal activity against Candida tropicalis isolate 4 in RPMI 1640 medium assessed as paradoxical growth at 6.25 ug/ml after 48 hrs by broth microdilution method; format: functional, organism-based
Candida tropicalis [25] = assay: Antifungal activity against Candida tropicalis isolate 7 in RPMI 1640 medium assessed as paradoxical growth at 6.25 ug/ml after 48 hrs by broth microdilution method; format: functional, organism-based
Candida tropicalis [26] = assay: Antifungal activity against Candida tropicalis isolate 4 in RPMI 1640 medium assessed as paradoxical growth at 12.5 ug/ml after 24 hrs by broth microdilution method; format: functional, organism-based
Candida tropicalis [27] = assay: Antifungal activity against Candida tropicalis ATCC 750 in RPMI 1640 medium assessed as paradoxical growth at 12.5 ug/ml after 24 hrs by broth microdilution method; format: functional, organism-based
Candida tropicalis [28] = assay: Antifungal activity against Candida tropicalis isolate 13 in RPMI 1640 medium assessed as paradoxical growth at 12.5 ug/ml after 48 hrs by broth microdilution method; format: functional, organism-based
Candida tropicalis [29] = assay: Antifungal activity against 10^5 CFU/ml Candida tropicalis clinical isolate in RPMI 1640 medium treated for 24 hrs followed by incubation in drug free medium for 48 hrs by broth microdilution method; format: functional, organism-based
Candida tropicalis [30] = assay: Antifungal activity Candida tropicalis ATCC 750 in RPMI 1640 medium at 12.5 ug/ml after 24 hrs by time-kill assay; format: functional, organism-based
Candida tropicalis [31] = assay: Antifungal activity Candida tropicalis isolate 4 in RPMI 1640 medium at 12.5 ug/ml after 24 hrs by time-kill assay; format: functional, organism-based
Candida tropicalis [32] = assay: Antifungal activity against 10^5 CFU/ml Candida tropicalis isolate 6 in RPMI 1640 medium at =< 0.09 ug/ml after 24 hrs by followed by incubation in drug free medium for 48 hrs broth microdilution method; format: functional, organism-based
Candida tropicalis [33] = assay: Antifungal activity against 10^5 CFU/ml Candida tropicalis isolate 2 in RPMI 1640 medium at =< 0.09 ug/ml after 24 hrs followed by incubation in drug free medium for 48 hrs by broth microdilution method; format: functional, organism-based
Candida tropicalis [34] = assay: Antifungal activity against 10^5 CFU/ml Candida tropicalis isolate 6 in antibiotic medium 3 at 6.25 ug/ml treated for 24 hrs followed by incubation in drug free medium for 48 hrs by broth microdilution method; format: functional, organism-based
Candida tropicalis [35] = assay: Antifungal activity against 10^5 CFU/ml Candida tropicalis isolate 11 in RPMI 1640 medium at 12.5 ug/ml treated for 24 hrs followed by incubation in drug free medium for 48 hrs by broth microdilution method; format: functional, organism-based
Candida tropicalis [36] = assay: Antifungal activity against > 2 x 10^7 CFU/ml Candida tropicalis isolate 14 in antibiotic medium 3 assessed as partial growth after 24 hrs by broth microdilution method; format: functional, organism-based

In the case of `CC[C@H](C)C[C@H](C)CCCCCCCCC(=O)N[C@H]1C[C@@H](O)[C@@H](NCCN)NC(=O)[C@@H]2[C@@H](O)CCN2C(=O)[C@H]([C@H](O)CCN)NC(=O)[C@H]([C@H](O)[C@@H](O)c2ccc(O)cc2)NC(=O)[C@@H]2C[C@@H](O)CN2C(=O)[C@H]([C@@H](C)O)NC1=O` [CASPOFUNGIN], the Activity (Candida tropicalis [1]) is reported as “inactive”, the Activity (Candida tropicalis [2]) is reported as “inactive” and the Activity (Candida tropicalis [3]) is reported as “inactive”. For the same compound, the Activity (Candida tropicalis [4]) was “inactive”, the Activity (Candida tropicalis [5]) was “inactive” and the MIC (Candida tropicalis [6]) was 0.024 µg/mL (≈ 0.022 µM). For the same compound, the MIC (Candida tropicalis [7]) was 0.024 µg/mL (≈ 0.022 µM), the MIC (Candida tropicalis [8]) was 0.024 µg/mL (≈ 0.022 µM) and the MIC (Candida tropicalis [9]) was 0.024 µg/mL (≈ 0.022 µM). The MIC (Candida tropicalis [10]) was 0.024 µg/mL (≈ 0.022 µM), the MIC (Candida tropicalis [11]) was 0.024 µg/mL (≈ 0.022 µM) and the MIC (Candida tropicalis [12]) was 0.024 µg/mL (≈ 0.022 µM). It also gave an MIC (Candida tropicalis [13]) of 0.024 µg/mL (≈ 0.022 µM), an MIC (Candida tropicalis [14]) of 0.024 µg/mL (≈ 0.022 µM) and an MIC (Candida tropicalis [15]) of 0.024 µg/mL (≈ 0.022 µM). For the same compound, the MIC (Candida tropicalis [16]) was 0.024 µg/mL (≈ 0.022 µM), the MIC (Candida tropicalis [17]) was 0.024 µg/mL (≈ 0.022 µM) and the Activity (Candida tropicalis [18]) was “inactive”. For the same compound, the Activity (Candida tropicalis [19]) was “inactive”, the Activity (Candida tropicalis [20]) was “inactive” and the Activity (Candida tropicalis [21]) was “inactive”. For the same compound, the Activity (Candida tropicalis [22]) was “inactive”, the Activity (Candida tropicalis [23]) was “Active” and the Activity (Candida tropicalis [24]) was “inactive”. For the same compound, the Activity (Candida tropicalis [25]) was “Active”, the Activity (Candida tropicalis [26]) was “inactive” and the Activity (Candida tropicalis [27]) was “inactive”. The Activity (Candida tropicalis [28]) was “inactive”, the Activity (Candida tropicalis [29]) was “Active” and the Activity (Candida tropicalis [30]) was “inactive”. For the same compound, the Activity (Candida tropicalis [31]) was “inactive”, the Activity (Candida tropicalis [32]) was “Active” and the Activity (Candida tropicalis [33]) was “Active”. The Activity (Candida tropicalis [34]) was “inactive”, the Activity (Candida tropicalis [35]) was “inactive” and the Activity (Candida tropicalis [36]) was “inactive”.
